Test results published in EP4364726A1, “METHOD FOR TREATING A CANCER AND/OR CANCER METASTASIS” (Nano Targeting & Therapy Biopharma Inc., priority 2022, dated 2024).

Assays:
[1] = cited from earlier work
[2] = tested on: luciferase-expressing HCT-116 cells; assay: Orthotopic colorectal cancer metastasis model (cells injected into cecum wall); type: in vivo, mice; conditions: orthotopic HCT-116-luc, 40 mg/kg twice per week, 8 administrations
Method: 2×10^6 luciferase-expressing HCT-116 cells were directly injected into the wall of the cecum with surgery to establish the orthotopic colorectal cancer metastasis model, this model spontaneously produces highly metastatic tumors in adjacent intestinal tissues, peritoneum, and distance metastasis (spleen, kidney, liver, and diaphragm). Tumor-bearing mice received IRI and IRI@NTT2_186k at dose levels of 40 mg/kg twice per week for a total of 8 administrations. The tumor growth and metastasis were observed by the IVIS system once a week and body weight was observed over the study period. To assess overall survival, animals were monitored up to the point of spontaneous death or approaching moribund status.

[3] = tested on: chicken embryo chorioallantoic membrane (CAM) tumor model; assay: Chorioallantoic membrane (CAM) analysis for angiogenesis; type: in vivo; conditions: administered on day 12, observed days 14 and 16
Method: To evaluate the effect of MSNs on tumor angiogenesis, chicken embryo chorioallantoic membrane (CAM) tumor model was used. The fertilized eggs were incubated in the incubator for 10 days, then a small window was opened in the eggshell and the cancer cells were implanted on the CAM membrane near the aorta. MSN or Doxorubicin (DOX) was administered on day 12 when the tumor was formed and the angiogenesis near the tumor was observed on days 14 and 16.

Structure (SMILES)	pka [1]	tumor course once treatment was discontinued [2]	tumor growth rate [2]	inhibition of primary tumor growth and metastases ([2]; IVIS)	blood vessels near the tumor [3]
CCc1c2c(nc3ccc(OC(=O)N4CCC(N5CCCCC5)CC4)cc13)-c1cc3c(c(=O)n1C2)COC(=O)[C@]3(O)CC [IRI, irinotecan]	about 10.9	tumor relapse and tumor metastases were observed	slower tumor growth rate compared to the control group	inefficient inhibition of tumor growth and metastases	
COc1cccc2c1C(=O)c1c(O)c3c(c(O)c1C2=O)C[C@@](O)(C(=O)CO)C[C@@H]3O[C@H]1C[C@H](N)[C@H](O)[C@H](C)O1 [DOX, Doxorubicin]					blood vessels exhibited disintegration and decreased density
